Experimental data taken from US9893302B2, “Heterocyclic fluorescent dyes and method of production thereof” (BASF SE, priority 2013, dated 2018).
Several values for one entry are separate records, joined by “and”; a condition that tells them apart may be missing. Identical values can stand only once. Like-named read-outs stand apart in the source and are kept apart here.

Experiments:
[1] = Solubility in typical organic solvents; type: physicochemical; details: for solubility compared with compound V-1: in typical organic solvents; for solubility: organic solvent or mixture
From the text: Reference is made to the below table.

[2] = Spectroscopic data: absorption, emission, Stokes shift, extinction coefficient, fluorescence quantum yield; type: physicochemical; details: for φfl (fluorescence quantum yield): standards Rhodamine B or Rhodamine 6G in EtOH
From the text: Spectroscopic data of compounds 3a, 3b and 3d as well as comparative compounds
Rhodamine B in EtOH or Rhodamine 6G in EtOH are used as standards for quantum yield measurements.

[3] = in CHCl3, read-out: Solubility in CHCl3
[4] = in Toluene, read-out: Solubility in Toluene

solubility compared with compound V-1 [1] | solubility [1, 3] | solubility [1, 4] | fluorescence quantum yield [2] | Stokes shift ([2]; solvent CHCl3) [cm⁻¹] | maxλabs ([2]; solvent CHCl3) [nm] | maxλem ([2]; solvent CHCl3) [nm] | εmax ([2]; solvent CHCl3) [M⁻¹ cm⁻¹] | φfl (fluorescence quantum yield) ([2]; solvent CHCl3) | Stokes shift ([2]; solvent DMF) [cm⁻¹] | maxλabs ([2]; solvent DMF) [nm] | maxλem ([2]; solvent DMF) [nm] | εmax ([2]; solvent DMF) [M⁻¹ cm⁻¹] | φfl (fluorescence quantum yield) ([2]; solvent DMF) | melting point | Compound
– | 272 µM and 126 µg/mL | 6.13 µM and 2.85 µg/mL | – | 200 | 593 | 600 | 110000 | 0.19 | 220 | 593 | 601 | 91000 | 0.22 | – | COc1cc2c(cc1OC)C1=C3C(=O)N4C=Cc5cc(OC)c(OC)cc5C4=C3C(=O)N1C=C2 [V-1]
– | – | – | – | 210 | 643 | 652 | 120000 | 0.05 | 240 | 645 | 655 | 107000 | 0.02 | – | CC(C)(C)c1cc(C(C)(C)C)c2oc3c(c2c1)C=CN1C(=O)C2=C4c5oc6c(C(C)(C)C)cc(C(C)(C)C)cc6c5C=CN4C(=O)C2=C31 [V-2]

The next lines start with the molecule.

Compound | solubility compared with compound V-1 [1] | solubility [1, 3] | solubility [1, 4] | fluorescence quantum yield [2] | Stokes shift ([2]; solvent CHCl3) [cm⁻¹] | maxλabs ([2]; solvent CHCl3) [nm] | maxλem ([2]; solvent CHCl3) [nm] | εmax ([2]; solvent CHCl3) [M⁻¹ cm⁻¹] | φfl (fluorescence quantum yield) ([2]; solvent CHCl3) | Stokes shift ([2]; solvent DMF) [cm⁻¹] | maxλabs ([2]; solvent DMF) [nm] | maxλem ([2]; solvent DMF) [nm] | εmax ([2]; solvent DMF) [M⁻¹ cm⁻¹] | φfl (fluorescence quantum yield) ([2]; solvent DMF) | melting point
COc1cccc(C2=CN3C(=O)C4=C5c6cc(OC)c(OC)cc6C(c6cccc(OC)c6)=CN5C(=O)C4=C3c3cc(OC)c(OC)cc32)c1 [3b] | order of magnitude higher | 955 µM and 639 µg/mL | 53.4 µM and 35.7 µg/mL | around 80% | 220 | 601 | 609 | 85000 | 0.85 | – | – | – | – | – | –
CC(C)(C)c1cc(C(C)(C)C)c2oc3c(c2c1)C(c1ccccc1)=CN1C(=O)C2=C4c5oc6c(C(C)(C)C)cc(C(C)(C)C)cc6c5C(c5ccccc5)=CN4C(=O)C2=C31 [3d] | order of magnitude higher | – | – | around 80% | 160 | 654 | 661 | 150000 | 0.81 | – | – | – | – | – | > 400 °C (dec.)
COc1cc2c(cc1OC)C1=C3C(=O)N4C=C(c5ccccc5)c5cc(OC)c(OC)cc5C4=C3C(=O)N1C=C2c1ccccc1 [3a] | order of magnitude higher | 3460 µM and 2110 µg/mL | 47 µM and 28.6 µg/mL | around 80% | 140 | 600 | 605 | 100000 | 0.89 | – | – | – | – | – | –
